Laboratory results from PubChem BioAssay (NCI).
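GI50 marks 50% less growth. At the TGI there is no net growth.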

Tests used:
Assay in all cases: NCI tumour cell line growth inhibition, 384-well format
[1] = system: NCI-H23 lung
[2] = system: SF-268 CNS
[3] = system: SW-620 colon
[4] = system: PC-3 prostate
[5] = system: MOLT-4 leukemia
[6] = system: IGROV1 ovarian
[7] = system: SK-MEL-28 melanoma
[8] = system: TK-10 renal
[9] = system: MDA-MB-468 breast
[10] = system: SK-OV-3 ovarian
[11] = system: NCI-H322M lung
[12] = system: U251 glioblastoma
[13] = system: OVCAR-3 ovarian
[14] = system: 786-0 renal
[15] = system: RXF 393 renal
[16] = system: CAKI-1 renal
[17] = system: COLO 205 colon
[18] = system: UO-31 renal
[19] = system: HCC-2998 colon
[20] = system: KM12 colon
[21] = system: A549 NSCLC
[22] = system: SN12C renal
[23] = system: EKVX NSCLC
[24] = system: NCI-H460 NSCLC
[25] = system: M14 melanoma
[26] = system: SNB-19 CNS
[27] = system: SK-MEL-5 melanoma
[28] = system: BT-549 breast
[29] = system: UACC-257 melanoma
[30] = system: ACHN renal
[31] = system: MDA-MB-231 breast
[32] = system: SR leukemia
[33] = system: OVCAR-4 ovarian
[34] = system: NCI/ADR-RES ovarian
[35] = system: K-562 leukemia
[36] = system: SNB-75 CNS
[37] = system: MCF7 breast
[38] = system: HOP-62 NSCLC
[39] = system: HOP-92 NSCLC
[40] = system: T-47D breast
[41] = system: DU-145 prostate
[42] = system: HCT-116 colon
[43] = system: SF-539 CNS
[44] = system: LOX IMVI melanoma
[45] = system: RPMI-8226 leukemia
[46] = system: OVCAR-8 ovarian
[47] = system: UACC-62 melanoma
[48] = system: HL-60(TB) leukemia
[49] = system: MALME-3M melanoma
[50] = system: NCI-H226 lung
[51] = system: HT29 colon
[52] = system: MDA-MB-435 melanoma
[53] = system: SF-295 CNS
[54] = system: NCI-H522 lung
[55] = system: HS 578T breast
[56] = system: HCT-15 colon
[57] = system: A498 renal
[58] = system: CCRF-CEM leukemia
[59] = system: SK-MEL-2 melanoma

## C[C@@H](Nc1cc(F)cc(F)c1)c1cc(C(=O)N(C)C)cc2c(=O)cc(N3CCOCC3)oc12
[1]
  GI50: 31.8 µM
  TGI: > 100 µM
[2]
  GI50: 13.1 µM
  TGI: > 100 µM
[3]
  GI50: 61.4 µM
  TGI: > 100 µM
[4]
  GI50: 0.261 µM
  TGI: > 100 µM
[5]
  GI50: 1.11 µM
  TGI: 10.8 µM
[6]
  GI50: 0.392 µM
  TGI: 3.29 µM
[7]
  GI50: 1.39 µM
  TGI: > 100 µM
[8]
  GI50: 3.57 µM
  TGI: > 100 µM
[9]
  GI50: 1.59 µM
  TGI: 12.7 µM
[10]
  GI50: 3.48 µM
  TGI: > 100 µM
[11]
  GI50: 8.36 µM
  TGI: 78 µM
[12]
  GI50: 39.2 µM
  TGI: > 100 µM
[13]
  GI50: 0.465 µM
  TGI: 18 µM
[14]
  GI50: 1.24 µM
  TGI: > 100 µM
[15]
  GI50: 0.182 µM
  TGI: 8.24 µM
[16]
  GI50: 0.25 µM
  TGI: > 100 µM
[17]
  GI50: 13.4 µM
  TGI: > 100 µM
[18]
  GI50: 6.38 µM
  TGI: > 100 µM
[19]
  GI50: 5.66 µM
  TGI: 55.6 µM
[20]
  GI50: 23.5 µM
  TGI: > 100 µM
[21]
  GI50: 7.85 µM
  TGI: > 100 µM
[22]
  GI50: 0.215 µM
  TGI: > 100 µM
[23]
  GI50: 2.4 µM
  TGI: > 100 µM
[24]
  GI50: 4.5 µM
  TGI: > 100 µM
[25]
  GI50: 20.4 µM
  TGI: > 100 µM
[26]
  GI50: 68.6 µM
  TGI: > 100 µM
[27]
  GI50: 11.3 µM
  TGI: > 100 µM
[28]
  GI50: 0.341 µM
  TGI: > 100 µM
[29]
  GI50: 17.2 µM
  TGI: > 100 µM
[30]
  GI50: 6.68 µM
  TGI: > 100 µM
[31]
  GI50: 49.1 µM
  TGI: > 100 µM
[32]
  GI50: 0.385 µM
  TGI: 16.6 µM
[33]
  GI50: > 100 µM
  TGI: > 100 µM
[34]
  GI50: > 100 µM
  TGI: > 100 µM
[35]
  GI50: 55.1 µM
  TGI: > 100 µM
[36]
  GI50: 0.762 µM
  TGI: > 100 µM
[37]
  GI50: 0.666 µM
  TGI: > 100 µM
[38]
  GI50: 28.8 µM
  TGI: > 100 µM
[39]
  GI50: 0.627 µM
  TGI: > 100 µM
[40]
  GI50: 0.591 µM
  TGI: 9.05 µM
[41]
  GI50: 17.4 µM
  TGI: > 100 µM
[42]
  GI50: 10.5 µM
  TGI: > 100 µM
[43]
  GI50: 12 µM
  TGI: > 100 µM
[44]
  GI50: 17 µM
  TGI: > 100 µM
[45]
  GI50: 16.6 µM
  TGI: 51.1 µM
[46]
  GI50: 10.3 µM
  TGI: > 100 µM
[47]
  GI50: 0.981 µM
  TGI: 24.7 µM
[48]
  GI50: 0.599 µM
  TGI: 9.14 µM
[49]
  GI50: 1.13 µM
  TGI: 63.1 µM
[50]
  GI50: 67.6 µM
  TGI: > 100 µM
[51]
  GI50: 6.45 µM
  TGI: > 100 µM
[52]
  GI50: 87 µM
  TGI: > 100 µM
[53]
  GI50: 0.611 µM
  TGI: 16 µM
[54]
  GI50: 23.7 µM
  TGI: > 100 µM
[55]
  GI50: 0.902 µM
  TGI: 32.8 µM
[56]
  GI50: 25.5 µM
  TGI: > 100 µM
[57]
  GI50: 0.0447 µM
  TGI: 1.31 µM
[58]
  GI50: 13.4 µM
  TGI: 57.9 µM

## Cc1sc(C(=O)c2cncnc2N[C@@H]2C[C@H](COS(N)(=O)=O)[C@@H](O)C2)cc1[C@@H]1NCCc2ccc(Cl)cc21
[4]
  GI50: 0.0352 µM
  TGI: 19.2 µM
[5]
  GI50: < 0.01 µM
  TGI: 0.0186 µM
[8]
  GI50: 14.5 µM
  TGI: 27.7 µM
[9]
  GI50: < 0.01 µM
  TGI: 0.0172 µM
[14]
  GI50: 0.453 µM
  TGI: 20.5 µM
[15]
  GI50: 0.0104 µM
  TGI: 0.0578 µM
[17]
  GI50: 0.0132 µM
  TGI: 0.0756 µM
[18]
  GI50: 10.6 µM
  TGI: 22.6 µM
[21]
  GI50: 0.0744 µM
  TGI: 17.2 µM
[22]
  GI50: 0.133 µM
  TGI: 21.4 µM
[25]
  GI50: 0.0322 µM
  TGI: 0.214 µM
[27]
  GI50: 0.0565 µM
  TGI: 0.239 µM
[30]
  GI50: 12.5 µM
  TGI: 25.3 µM
[32]
  GI50: < 0.01 µM
[33]
  GI50: 0.029 µM
  TGI: 0.081 µM
[34]
  GI50: 32.7 µM
  TGI: > 100 µM
[35]
  GI50: 0.0548 µM
  TGI: 13.1 µM
[37]
  GI50: < 0.01 µM
  TGI: 15.3 µM
[38]
  GI50: 0.321 µM
  TGI: 19.3 µM
[39]
  GI50: 0.0188 µM
  TGI: 10.1 µM
[42]
  GI50: 0.0282 µM
  TGI: 17.4 µM
[45]
  GI50: < 0.01 µM
[46]
  GI50: 0.186 µM
  TGI: 17.5 µM
[47]
  GI50: 0.0198 µM
  TGI: 17.7 µM
[48]
  GI50: 0.0111 µM
  TGI: 0.0233 µM
[50]
  GI50: 0.16 µM
  TGI: 16.3 µM
[52]
  GI50: < 0.01 µM
  TGI: 0.0183 µM
[59]
  GI50: < 0.01 µM
  TGI: 0.0123 µM
[54]
  GI50: < 0.01 µM
  TGI: 0.0151 µM
[56]
  GI50: 2.5 µM
  TGI: 14.2 µM
[57]
  GI50: 0.561 µM
  TGI: 18.7 µM
[58]
  GI50: < 0.01 µM
  TGI: 0.0148 µM
